# Source: US11691984B2, “Compounds and methods for DCAF-mediated protein degradation” (The Scripps Research Institute, priority 2018, dated 2023)
# Assays:
# BRD4 = target: T1, BRD4 (Homo sapiens, UniProt O60885); experiment: Proteome-wide SILAC MS protein abundance in HEK293T cells: BRD4; assay type: cell-based; settings: 24 hours
# T1 construct: degradation of endogenous BRD4 in HEK293T cells; endogenous in cells; host or cells: HEK293T (A10, A16); HEK293 DCAF16+/+ and DCAF16-/- clones (A11)
# Description: (§1) HEK293T light and heavy SILAC cells were treated with DMSO and KB02-JQ1 (20 μM) or KB02-SLF (2 μM) for 24 hours, respectively. Light and heavy cells were collected and lysed in 1% NP-40 lysis buffer with complete protease inhibitor cocktail. Cells were vortexed and sonicated for 5 pulses (40%, 4). The supernatant was collected after centrifugation at 16,000 g for 10 min at 4° C. Protein concentration was determined by DC assay. 50 μg proteome from light and heavy samples were mixed, followed by methanol/chloroform precipitation. […] Next, the ratio of the peak areas under the light and heavy signals (signal-to-noise ratio>2.5) was calculated. […] In addition, peptides detected as ‘singletons,’ where only the heavy ion of a peptide pair was identified, but that cleared all other filtering parameters, were given a default assigned ratio of ‘20,’ which is defined as any measured ratio that is ≥20 and is the maximum ratio reported here.” The median SILAC ratios from quantified peptides were used as measures of protein abundance. The following quality filters were further applied to generate the plot: (1) proteins must have at least two quantified peptides; (2) proteins must be present in both replicates; (3) for each protein, the standard deviation of measured ratios of peptides must be <1.0.
# ACAT1 = target: T2, ACAT1 (Homo sapiens, UniProt P24752); experiment: Proteome-wide SILAC MS protein abundance in HEK293T cells: ACAT1; assay type: cell-based; settings: 24 hours
# T2 construct: endogenous in cells; host or cells: HEK293T
# T2 sequence (P24752 34-427): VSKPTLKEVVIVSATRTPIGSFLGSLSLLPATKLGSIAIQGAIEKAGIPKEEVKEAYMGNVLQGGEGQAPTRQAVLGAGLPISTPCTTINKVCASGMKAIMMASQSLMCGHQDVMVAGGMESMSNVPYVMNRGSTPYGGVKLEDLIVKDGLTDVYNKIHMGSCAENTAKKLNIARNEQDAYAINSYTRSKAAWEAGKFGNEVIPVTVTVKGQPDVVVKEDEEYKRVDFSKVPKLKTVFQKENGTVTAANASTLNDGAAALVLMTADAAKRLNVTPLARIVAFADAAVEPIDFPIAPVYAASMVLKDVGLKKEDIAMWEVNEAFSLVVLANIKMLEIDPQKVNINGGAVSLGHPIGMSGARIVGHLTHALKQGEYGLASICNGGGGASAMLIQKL
# Description: as §1
BRD4 abundance (MS-based proteomics) (BRD4; KB02-JQ1 20 μM),ACAT1 abundance (MS-based proteomics) (ACAT1; KB02-JQ1 20 μM),SMILES,BRD4 abundance (MS-based proteomics) (BRD4; KB02-SLF 2 μM),ACAT1 abundance (MS-based proteomics) (ACAT1; KB02-SLF 2 μM)
selective degradation of BRD4,substantially decreased abundance,"Cc1sc2c(c1C)C(c1ccc(Cl)cc1)=N[C@@H](CC(=O)NCCOCCOCCNC(=O)COc1ccc3c(c1)CCCN3C(=O)CCl)c1nnc(C)n1-2 [KB02-JQ1, (S)-2-((1-(2-chloroacetyl)-1,2,3,4-tetrahydroquinolin-6-yl)oxy)-N-(2-(2-(2-(2-(4-(4-chlorophenyl)-2,3,9-trimethyl-6H-thieno[3,2-f][1,2,4]triazolo[4,3-a][1,4]diazepin-6-yl)acetamido)ethoxy)ethoxy)ethyl)acetamide]",,
,,"CCC(C)(C)C(=O)C(=O)N1CCCC[C@H]1C(=O)O[C@H](CCc1ccc(OC)c(OC)c1)c1cccc(NC(=O)CCOCCOCCNC(=O)COc2ccc3c(c2)CCCN3C(=O)CCl)c1 [KB02-SLF, (R)-1-(3-(3-(2-(2-(2-((1-(2-chloroacetyl)-1,2,3,4-tetrahydroquinolin-6-yl)oxy)acetamido)ethoxy)ethoxy)propanamido)phenyl)-3-(3,4-dimethoxyphenyl)propyl (S)-1-(3,3-dimethyl-2-oxopentanoyl)piperidine-2-carboxylate]",not BRD4,reductions in ACAT1
